From patent US11739070B2, “C5A receptor modulators” (IDORSIA PHARMACEUTICALS LTD, priority 2018, dated 2023) come the findings set out here.

The target of this assay is T1, C5AR1 (Homo sapiens, UniProt P21730).
T1 construct: host or cells: CHO-K1
T1 sequence (P21730 1-350): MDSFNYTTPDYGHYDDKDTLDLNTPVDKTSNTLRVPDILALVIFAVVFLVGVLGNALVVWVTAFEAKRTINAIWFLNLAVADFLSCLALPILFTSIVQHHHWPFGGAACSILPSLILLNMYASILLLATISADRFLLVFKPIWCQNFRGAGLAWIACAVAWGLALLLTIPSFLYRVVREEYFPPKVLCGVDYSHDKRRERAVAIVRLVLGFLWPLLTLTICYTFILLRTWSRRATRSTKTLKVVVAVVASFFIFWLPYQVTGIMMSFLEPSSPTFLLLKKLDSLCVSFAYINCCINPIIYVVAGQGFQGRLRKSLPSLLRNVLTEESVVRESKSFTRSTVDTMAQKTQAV
In words: hC5a DISCO IC50 assay (PathHunter beta-arrestin, antagonist mode). The format is cell-based. The conditions noted are these: CHO-K1 C5AR1 beta-arrestin cell line; antagonist vs 1-10 nM C5a agonist; geometric mean values; read-out: C5aR IC50. The method, then: II. Biological Assays In Vitro Assay hC5a DISCO IC50 Assay
5 μl Antagonist at 6-fold end concentration or DMSO control is added to assay medium and subsequently 5 μl 1-10 nM C5a agonist at 6 fold end concentration. Cells are centrifuged for 1 min at 1000 rpm and incubated for 1.5 hour in at 37° C. Plates are equilibrated at room temperature for several minutes before adding 12 μl/well Detection Reagent (PathHunter Detection Kit, DiscoverX, Cat #93-0001). Plates are centrifuged for 1 min at 1000 rpm and incubated for 45 minutes at RT before being measured on a Fluostar Optima, BMG Labtech. IC50 values are calculated from a serial dilution range of antagonist using inhouse software and given in nmol/l.
The calculated IC50 values may fluctuate depending on the daily cellular assay performance. Fluctuations of this kind are known to those skilled in the art. Average IC50 values from several measurements are given as geometric mean values.
The IC50 is the concentration that gives 50% inhibition. For the compound `COc1cccc2c1n(Cc1ccccc1C(F)(F)F)c(=O)n2C1CCN(c2ccccc2OCc2ccccc2)CC1` [Example 231, 1-[1-(2-Benzyloxy-phenyl)-piperidin-4-yl]-4-methoxy-3-(2-trifluoromethyl-benzyl)-1,3-dihydro-benzoimidazol-2-one], the 50% inhibitory concentration (IC50) turned out to be 66 nM. With `COc1ccnc(C)c1N1CCC(n2c(=O)n(Cc3ccccc3C(F)(F)F)c3c(OC)cccc32)CC1` [Example 247, 4-Methoxy-1-(4′-methoxy-2′-methyl-3,4,5,6-tetrahydro-2H-[1,3′]bipyridinyl-4-yl)-3-(2-trifluoromethyl-benzyl)-1,3-dihydro-benzoimidazol-2-one], the half-maximal inhibitory concentration (IC50) came out at 563 nM. For the compound `[2H]c1ccc(OC)c2c1n(C1CCN(c3c(C)cccc3C)CC1)c(=O)n2Cc1ccccc1C(F)(F)F` [Example 3, 1-(1-(2,6-dimethylphenyl)piperidin-4-yl)-4-methoxy-3-(2-(trifluoromethyl)benzyl)-1,3-dihydro-benzoimidazol-2-one-7-d], the IC50 is 23 nM. Then `COc1cccc2c1n(Cc1ccccc1C(F)(F)F)c(=O)n2C1CCN(c2c(F)cccc2C=O)C(C)C1` (centres unmarked) [Example 145, 3-Fluoro-2-{4-[4-methoxy-2-oxo-3-(2-trifluoromethyl-benzyl)-2,3-dihydro-benzoimidazol-1-yl]-2-methyl-piperidin-1-yl}-benzaldehyde], with 16 nM; and `COc1cccc2c1n(Cc1nccnc1C(F)(F)F)c(=O)n2[C@@H]1CCN(c2c(F)cccc2C#N)C1` [Example 111, 3-Fluoro-2-{(R)-3-[4-methoxy-2-oxo-3-(3-trifluoromethyl-pyrazin-2-ylmethyl)-2,3-dihydro-benzoimidazol-1-yl]-pyrrolidin-1-yl}-benzonitrile], with 264 nM. The same measure for `COc1cccc2c1n(Cc1cnccc1C(C)C)c(=O)n2C1CCN(c2c(C)cccc2F)CC1` [Example 181, 1-[1-(2-Fluoro-6-methyl-phenyl)-piperidin-4-yl]-3-(4-isopropyl-pyridin-3-ylmethyl)-4-methoxy-1,3-dihydro-benzoimidazol-2-one]: 22 nM. The same measure for `COc1cccc2c1n(Cc1ccccc1C(F)(F)F)c(=O)n2[C@@H]1CCN(c2c(F)cccc2CN(CCO)CCO)C1` [Example 141, 1-[(R)-1-(2-{[Bis-(2-hydroxy-ethyl)-amino]-methyl}-6-fluoro-phenyl)-pyrrolidin-3-yl]-4-methoxy-3-(2-trifluoromethyl-benzyl)-1,3-dihydro-benzoimidazol-2-one]: 2130 nM; for `COc1cccc2c1n(Cc1ccccc1C(F)(F)F)c(=O)n2C1CCCN(c2c(C)cccc2F)C1` (centres unmarked) [Example 212, 1-[1-(2-Fluoro-6-methyl-phenyl)-piperidin-3-yl]-4-methoxy-3-(2-trifluoromethyl-benzyl)-1,3-dihydro-benzoimidazol-2-one]: 2080 nM.

In the case of `COc1cccc2c1n(Cc1ccccc1C(F)(F)F)c(=O)n2C1CCN(C(=O)C(C)(C)C)CC1` [Example 28, 1-[1-(2,2-Dimethyl-propionyl)-piperidin-4-yl]-4-methoxy-3-(2-trifluoromethyl-benzyl)-1,3-dihydro-benzoimidazol-2-one], the IC50 turned out to be 1330 nM. Then `COc1cccc2c1n(Cc1ccccc1C(F)(F)F)c(=O)n2C1CCCN(c2c(C)cccc2C)C1` (centres unmarked) [Example 217, 1-[1-(2,6-Dimethyl-phenyl)-piperidin-3-yl]-4-methoxy-3-(2-trifluoromethyl-benzyl)-1,3-dihydro-benzoimidazol-2-one], with 158 nM; and `COc1cccc2c1n(Cc1ccccc1C(F)(F)F)c(=O)n2[C@@H]1CCN(c2c(C)ccnc2C)C1` [Example 66, 1-[(R)-1-(2,4-Dimethyl-pyridin-3-yl)-pyrrolidin-3-yl]-4-methoxy-3-(2-trifluoromethyl-benzyl)-1,3-dihydro-benzoimidazol-2-one], with 60 nM.
